Measured values published in ChEMBL document CHEMBL6078630, “Design, synthesis, and bioactivity investigation of novel cyclic lipopeptide antibiotics targeting top-priority multidrug-resistant gram-negative bacteria” (Eur J Med Chem, 2024).
Converted amounts (≈) assume the structure as drawn. The source made the active and inactive calls. The calls are words filed in the database; no cut-off is given here. Bridge positions count the residues as written; N and C are the ends. Square brackets hold non-standard residues; d marks the D form. Peptide text beside a SMILES is read from it. * marks the point of attachment. Heptanoyl(6-Me) = CC(C)CCCCC(=O)*; Dab = NCC[C@H](N)C(=O)O; Dap = NC[C@H](N)C(=O)O

Key:
Escherichia coli [1] = test: Antibacterial activity against Escherichia coli ATCC BAA-2523 assessed as inhibition of bacterial growth incubated for 16 to 20 hrs by CLSI protocol based broth microdilution method; assay type: functional; conditions: time 16-20 hrs
Klebsiella pneumoniae [2] = test: Antibacterial activity against carbapenem-resistant Klebsiella pneumoniae ATCC BAA-1705 assessed as inhibition of bacterial growth incubated for 16 to 20 hrs by CLSI protocol based broth microdilution method; assay type: functional; conditions: time 16-20 hrs
Acinetobacter baumannii [3] = test: Antibacterial activity against Acinetobacter baumannii NCTC 13304 (OXA-27) assessed as inhibition of bacterial growth incubated for 16 to 20 hrs by CLSI protocol based broth microdilution method; assay type: functional; conditions: time 16-20 hrs
Escherichia coli [4] = test: Antibacterial activity against carbapenem-resistant Escherichia coli clinical isolate 231112E006B assessed as inhibition of bacterial growth incubated for 24 hrs by CLSI protocol based broth microdilution method; assay type: functional
Escherichia coli [5] = test: Antibacterial activity against carbapenem-resistant Escherichia coli clinical isolate 231109W005 assessed as inhibition of bacterial growth incubated for 24 hrs by CLSI protocol based broth microdilution method; assay type: functional
Klebsiella pneumoniae [6] = test: Antibacterial activity against carbapenem-resistant Klebsiella pneumoniae clinical isolate ets77 assessed as inhibition of bacterial growth incubated for 24 hrs by CLSI protocol based broth microdilution method; assay type: functional
Pseudomonas aeruginosa [7] = test: Antibacterial activity against carbapenem-resistant Pseudomonas aeruginosa clinical isolate ets6 assessed as inhibition of bacterial growth incubated for 24 hrs by CLSI protocol based broth microdilution method; assay type: functional
Pseudomonas aeruginosa [8] = test: Antibacterial activity against carbapenem-resistant Pseudomonas aeruginosa clinical isolate ets15 assessed as inhibition of bacterial growth incubated for 24 hrs by CLSI protocol based broth microdilution method; assay type: functional
Pseudomonas aeruginosa [9] = test: Antibacterial activity against carbapenem-resistant Pseudomonas aeruginosa clinical isolate ets22 assessed as inhibition of bacterial growth incubated for 24 hrs by CLSI protocol based broth microdilution method; assay type: functional
Pseudomonas aeruginosa [10] = test: Antibacterial activity against carbapenem-resistant Pseudomonas aeruginosa clinical isolate ets38 assessed as inhibition of bacterial growth incubated for 24 hrs by CLSI protocol based broth microdilution method; assay type: functional
Pseudomonas aeruginosa [11] = test: Antibacterial activity against carbapenem-resistant Pseudomonas aeruginosa clinical isolate ets49 assessed as inhibition of bacterial growth incubated for 24 hrs by CLSI protocol based broth microdilution method; assay type: functional
Pseudomonas aeruginosa [12] = test: Antibacterial activity against carbapenem-resistant Pseudomonas aeruginosa clinical isolate ets83 assessed as inhibition of bacterial growth incubated for 24 hrs by CLSI protocol based broth microdilution method; assay type: functional
Pseudomonas aeruginosa [13] = test: Antibacterial activity against carbapenem-resistant Pseudomonas aeruginosa clinical isolate ets84 assessed as inhibition of bacterial growth incubated for 24 hrs by CLSI protocol based broth microdilution method; assay type: functional
Pseudomonas aeruginosa [14] = test: Antibacterial activity against carbapenem-resistant Pseudomonas aeruginosa clinical isolate ets85 assessed as inhibition of bacterial growth incubated for 24 hrs by CLSI protocol based broth microdilution method; assay type: functional
Pseudomonas aeruginosa [15] = test: Antibacterial activity against carbapenem-resistant Pseudomonas aeruginosa clinical isolate ets104 assessed as inhibition of bacterial growth incubated for 24 hrs by CLSI protocol based broth microdilution method; assay type: functional
Acinetobacter baumannii [16] = test: Antibacterial activity against carbapenem-resistant Acinetobacter baumannii clinical isolate ets171 assessed as inhibition of bacterial growth incubated for 24 hrs by CLSI protocol based broth microdilution method; assay type: functional
Acinetobacter baumannii [17] = test: Antibacterial activity against carbapenem-resistant Acinetobacter baumannii clinical isolate ets178 assessed as inhibition of bacterial growth incubated for 24 hrs by CLSI protocol based broth microdilution method; assay type: functional
Pseudomonas aeruginosa [18] = test: Antibacterial activity against Pseudomonas aeruginosa ATCC 27853 assessed as decrease in bacterial concentration at 0.5 to 2 times of MIC measured after 1 hrs by time-kill kinetics assay; assay type: functional, organism-based
[19] = Toxicity in ICR mouse assessed as adverse effect at 15.4 mg/kg, iv administered as single dose; assay type: organism-based; conditions: in vivo
[20] = Nephrotoxicity against Sprague-Dawley rat assessed as increase in BUN level at 4 mg/kg, iv administered for 7 days by fully automated biochemistry analyzer XR200PLUS; assay type: toxicity, organism-based; conditions: in vivo, 168 h, time 7 day
[21] = Nephrotoxicity against Sprague-Dawley rat assessed as increase in CRE level at 4 mg/kg, iv administered for 7 days by fully automated biochemistry analyzer XR200PLUS; assay type: toxicity, organism-based; conditions: in vivo, 168 h, time 7 day
[22] = C0 in male Sprague-Dawley rat at 3 mg/kg, iv measured after 24 hrs by LC-MS/MS analysis; assay type: ADME, organism-based; conditions: in vivo
[23] = Clearance in male Sprague-Dawley rat at 3 mg/kg, iv measured after 24 hrs by LC-MS/MS analysis; assay type: ADME, organism-based; conditions: in vivo
[24] = Protein binding in human plasma assessed as unbound fraction at 0.2 uM incubated for 6 hrs by LC-MS/MS analysis; assay type: ADME, cell-free
Escherichia coli [25] = test: Antibacterial activity against Escherichia coli ATCC BAA-2523 infected in ICR mouse model assessed as survival rate at 4 mg/kg, iv administered at 1 and 6 hrs post-infection and measured after 7 days relative to control; assay type: functional; conditions: ATCC BAA-2523, 168 h, time 7 day
Klebsiella pneumoniae [26] = test: Antibacterial activity against carbapenem-resistant Klebsiella pneumoniae ATCC BAA-1705 infected in ICR mouse model administered intravenously with compound at 1 and 6 hrs post-infection and measured after 7 days; assay type: functional; conditions: ATCC BAA-1705, 168 h, route iv, time 7 day
Klebsiella pneumoniae [27] = test: Antibacterial activity against carbapenem-resistant Klebsiella pneumoniae ATCC BAA-1705 infected in ICR mouse model assessed as survival rate at 2 mg/kg, iv administered at 1 and 6 hrs post-infection and measured after 7 days relative to control; assay type: functional; conditions: time 7 day
Acinetobacter baumannii [28] = test: Antibacterial activity against carbapenem-resistant Acinetobacter baumannii NCTC13304 infected in ICR mouse model assessed as survival rate at 3 mg/kg, iv administered at 1 and 6 hrs post-infection and measured after 7 days relative to control; assay type: functional; conditions: NCTC13304, 168 h, time 7 day
Klebsiella pneumoniae [29] = test: Antibacterial activity against carbapenem-resistant Klebsiella pneumoniae clinical isolate KPN+19-15 infected in ICR mouse model administered intravenously with compound at 1 and 6 hrs post-infection and measured after 7 days; assay type: functional; conditions: 168 h, route iv, time 7 day
Klebsiella pneumoniae [30] = test: Antibacterial activity against carbapenem-resistant Klebsiella pneumoniae clinical isolate KPN+19-15 infected in ICR mouse model assessed as survival rate at 2 mg/kg, iv administered at 1 and 6 hrs post-infection and measured after 7 days relative to control; assay type: functional; conditions: 168 h, time 7 day
Pseudomonas aeruginosa [31] = test: Antibacterial activity against Pseudomonas aeruginosa ATCC 27853 infected in ICR mouse model infected in ICR mouse model assessed as survival rate at 10 mg/kg, iv administered at 1 and 6 hrs post-infection and measured after 7 days relative to control; assay type: functional; conditions: ATCC 27853, 168 h, time 7 day
Pseudomonas aeruginosa [32] = test: Potentiation of rifampicin induced antibacterial activity against Pseudomonas aeruginosa ATCC 27853 assessed as rifampicin MIC at 0.016 microg/ml incubated 24 hrs by cation adjusted Mueller-Hinton broth based method; assay type: functional; conditions: dose 0.016 µg/ml
Pseudomonas aeruginosa [33] = test: Potentiation of rifampicin induced antibacterial activity against Pseudomonas aeruginosa ATCC 27853 assessed as rifampicin MIC at 0.06 microg/ml incubated 24 hrs by cation adjusted Mueller-Hinton broth based method; assay type: functional; conditions: dose 0.06 µg/ml
Pseudomonas aeruginosa [34] = test: Potentiation of rifampicin induced antibacterial activity against Pseudomonas aeruginosa ATCC 27853 assessed as rifampicin MIC at 0.25 microg/ml incubated 24 hrs by cation adjusted Mueller-Hinton broth based method; assay type: functional; conditions: dose 0.25 µg/ml

`CC(C)CCCCC(=O)N[C@@H](CCN)C(=O)N[C@H](C(=O)N[C@@H](CN)C(=O)N[C@H]1CCNC(=O)[C@H]([C@@H](C)O)NC(=O)[C@H](CCN)NC(=O)[C@H](CCN)NC(=O)[C@H]([C@@H](C)O)NC(=O)[C@@H](Cc2ccccc2)NC(=O)[C@H](CCN)NC1=O)[C@@H](C)O` ({Heptanoyl(6-Me)}-[Dab]T[Dap][Dab][Dab][dF]T[Dab][Dab]T; lactam 4-C) gave an MIC (Escherichia coli [1]) of no more than 0.03 µg/mL, an MIC (Klebsiella pneumoniae [2]) of no more than 0.03 µg/mL and an MIC (Acinetobacter baumannii [3]) of no more than 0.03 µg/mL. It also gave an MIC (Escherichia coli [4]) of less than 0.06 µg/mL, an MIC (Escherichia coli [5]) of less than 0.06 µg/mL and an MIC (Klebsiella pneumoniae [6]) of 0.5 µg/mL (≈ 0.43 µM). For the same compound, the MIC (Pseudomonas aeruginosa [7]) was 1 µg/mL (≈ 0.86 µM), the MIC (Pseudomonas aeruginosa [8]) was 0.5 µg/mL (≈ 0.43 µM) and the MIC (Pseudomonas aeruginosa [9]) was 2 µg/mL (≈ 1.72 µM). The MIC (Pseudomonas aeruginosa [10]) was 1 µg/mL (≈ 0.86 µM), the MIC (Pseudomonas aeruginosa [11]) was 0.06 µg/mL (≈ 0.0516 µM) and the MIC (Pseudomonas aeruginosa [12]) was 0.5 µg/mL (≈ 0.43 µM). It also gave an MIC (Pseudomonas aeruginosa [13]) of 0.5 µg/mL (≈ 0.43 µM), an MIC (Pseudomonas aeruginosa [14]) of 0.5 µg/mL (≈ 0.43 µM) and an MIC (Pseudomonas aeruginosa [15]) of 1 µg/mL (≈ 0.86 µM). For the same compound, the MIC (Acinetobacter baumannii [16]) was 0.5 µg/mL (≈ 0.43 µM), the MIC (Acinetobacter baumannii [17]) was 0.5 µg/mL (≈ 0.43 µM) and the Activity (Pseudomonas aeruginosa [18]) was “Active”. The Activity [19] was “Non-toxic”, the Activity [20] was “Non-toxic” and the Activity [21] was “Non-toxic”. The C0 at 24 h [22] was 9810 ng/mL, the clearance [23] was 4.16 mL/min/kg and the fraction unbound at 6 h, 0.2 µM [24] was 0.232. The survival at 4 mg/kg (Escherichia coli [25]) was 100%, the ED50 (Klebsiella pneumoniae [26]) was 0.32 mg/kg and the Activity (Klebsiella pneumoniae [27]) was 100%. It also gave a survival at 3 mg/kg (Acinetobacter baumannii [28]) of 100%, an ED50 (Klebsiella pneumoniae [29]) of 0.38 mg/kg and a survival at 2 mg/kg (Klebsiella pneumoniae [30]) of 100%. For the same compound, the survival at 10 mg/kg (Pseudomonas aeruginosa [31]) was 100%, the MIC (Pseudomonas aeruginosa [32]) was 32 µg/mL and the MIC (Pseudomonas aeruginosa [33]) was 0.25 µg/mL. The MIC (Pseudomonas aeruginosa [34]) was no more than 0.06 µg/mL.
